One may read the Cmax as the maximum level reached in the sampled fluid or tissue. As a reminder, the Tmax is the time at which the peak concentration occurs.

Data set [1] can be described thus: Pharmacokinetics of DPB after oral DPB or NaDPB and intravenous NaDPB. The note with it: 75 mg/kg, versus oral DPB free acid. The data set is classed as in vivo, Beagle dogs. The protocol: (§1) In accordance with the present invention, pharmacokinetic parameters were calculated using standard non-compartmental methods, as implemented in WinNonlin™ 4.0.1. […] The mean, SD and CV (%) were used to calculate the AUC0-t (µg.h/mL), Cmax (µg/ml) (the maximum observed concentration), Tmax (hours) (the time to reach that peak concentration) and Kel (the elimination rate constant) for each animal and each analyte.
(§2) AUC0-t was calculated using the linear trapezoidal rule, which employs an approximate integration formula. The area of each trapezoid was calculated, and the sum of all the areas of all the trapezoids yielded an estimate of the true area under the curve. (See, Gibaldi et al. Pharmacokinetics. 2nd Ed. Marcel Dekker, Inc., 1982; Yeh et al., A comparison of numerical integrating algorithms by trapezoidal, lagrange, and spline approximations. J. Pharmacokinet Biopharm. 6: 79 (1978), the disclosure of which is herein incorporated by reference.) Cmax and Tmax were then determined for each concentration vs. time profile. Elimination rate constant (Kel) was calculated using regression analyses on the natural log (In) of plasma concentration values (y) versus time (x).
We examined the delivery of DPB to the vascular compartment by administrating directly DPB and compared it with the sodium salt of DPB in dogs. […] DPB was quantified in plasma using HPLC (LLOQ=0.25 µg/mL). […]

Experiment in data set [2]: as above
The data set is classed as in vivo, Sprague-Dawley rats. To be noted: 150 mg/kg; for AUC0-t for DPB greater than after oral administration of DPB / Cmax for DPB greater than after oral administration of DPB: versus oral DPB; for AUC at 24 h: rat, in vivo, analyte DPB, read-out: AU0-24. The protocol: as §1, §2
(§3) We examined the delivery of DPB to the vascular compartment by administrating directly DPB and compared it with the sodium salt of DPB. This study compared the pharmacokinetics of DPB after oral administration of DPB (150 mg/kg) and sodium salt of DPB (150 mg/kg) in rats. Fifty-four rats were administered DPB and sodium salt of DPB by a single oral gavage (n=54). Blood samples were obtained (approximately 0.5 mL each) were collected following each treatment from animal via the jugular vein. Blood samplings from groups of 3 rats/sex/time point were collected at various times after dosing, in order to provide the complete time-points of pre-dose, 0, 0.5, 1, 2, 3, 4, 6, 12, 18, 24, 36 and 48 hours after dosing. Each blood sample was collected into a tube containing lithium heparin and the samples were spun in a refrigerated centrifuge. The resultant plasma was stored at -80°C prior to analysis. DPB was quantified in plasma using HPLC (LLOQ=0.25 µg/mL).
We calculated AUC0-t for DPB at various times (24, 36 and 48 hours) after oral administrations of DPB and sodium salt of DPB. Table 5: AUCs at various times (24,36 and 48 hours) after Oral Administration of DPB and NaDPB in Beagle Dogs (75 mg/kg, n=28)

Data set [3] can be described thus: Brain concentration of DPB after oral DPB or NaDPB and intravenous NaDPB. The note with it: 150 mg/kg. It counts as in vivo, Sprague-Dawley rats. The protocol: as §3
In this study, we measured the brain concentration of DPB. Brains were collected as soon as possible after euthanasia from each rat. They were stored in a freezer at -80°C prior to determination of DPB brain tissue concentrations. Table 6 summarizes the brain concentrations of DPB after oral administration of DPB and sodium salt of DPB in Sprague-Dawley rats.

For data set [4] the following is noted: aqueous solution at pH 7; cited from earlier work.
In data set [5] the test system is maximal electroshock seizure (MES). The note with it: cited from earlier work.
A short description of data set [6]: Pharmacokinetics of MMMDPB and DPB after oral MMMDPB or NaMMMDPB and intravenous NaMMMDPB. The data set is classed as in vivo, Beagle dogs. The protocol:
as §1, §2
Blood samples were obtained pre-dose and 0.25, 0.5, 1, 2, 3, 4, 6, 9, 12, 15, 18, and 24 hours after dosing. Venous blood (~1 mL) were drawn and collected in lithium heparin (anticoagulant). Blood samples were spun in a refrigerated centrifuge and plasma were stored at -80°C prior to analysis. […] Calibration curves were obtained using a weighted (1/C^2) least squares linear regression analysis of peak area ratio (analyte/internal standard) versus the nominal concentration of the calibration standards. Concentrations were obtained by interpolation from the run defined calibration curve. Regressions and figures were generated by PE Sciex Analyst Version 1.2 software.
Plasma samples were thawed and subjected to solid phase extraction with 2 mL acetonitrile prior to HPLC method with Tandem Mass Spectrometry Detection. Chromatographic conditions were performed as followed: […]

[7] abbreviates: dog, in vivo, iv, 15 mg/kg, IV infusion, analyte DPB.

The structures appear in SMILES notation. Where two headings read alike, the source gives them in different places. Some results are limits rather than exact numbers.

Turning to `O=C1NC(=O)C(c2ccccc2)(c2ccccc2)C(=O)N1.[Na]` [NaDPB, sodium 5,5-diphenyl barbiturate], the “AUC0-t for DPB greater than after oral administration of DPB” value is recorded as ~ 4 fold in data set [1]; ~ 2 fold in data set [2] (Oral, female); ~ 4.5 fold in data set [2] (Oral, male). The “Cmax for DPB greater than after oral administration of DPB” value in data set [1] is recorded as ~ 3 fold; in data set [2] (Oral, female) it was ~ 1.5 fold; in data set [2] (Oral, male), ~ 2.5 fold. In addition, the AUC at 24 h in data set [2] (iv, IV infusion, female) amounted to 3400 µg·h/mL; in data set [2] (iv, IV infusion, male) it was 3160 µg·h/mL; in data set [2] (po, Oral, female) it was 1990 µg·h/mL; in data set [2] (po, Oral, male), 1710 µg·h/mL.
On to `O=C1NC(=O)C(c2ccccc2)(c2ccccc2)C(=O)N1` [DPB, 5,5-diphenyl barbituric acid], for which the “Mean Brain Concentrations of DPB” value in data set [3] (female, 24 hr) is recorded as 7.04 µg/g; in data set [3] (female, 36 hr), 6.84 µg/g; in data set [3] (female, 48 hr), 5.24 µg/g; in data set [3] (male, 24 hr) it was 3.09 µg/g; in data set [3] (male, 36 hr), 3.36 µg/g; in data set [3] (male, 48 hr), “BQL”. In addition, in data set [4], the “Water solubility, less soluble as compared to phenobarbital” value was 1/100. Besides, the AUC at 24 h in data set [2] (po, Oral, female) was found to be 1210 µg·h/mL; in data set [2] (po, Oral, male), 623 µg·h/mL. In addition, the protection is on record as at least 50% in data set [5] (brain concentrations in excess of 10 µg/ml) and at most 20% in data set [5] (brain concentrations of DPB less than 1 µg/ml).
As for `COCN1C(=O)NC(=O)C(c2ccccc2)(c2ccccc2)C1=O` [NaMMMDPB, sodium monomethoxymethyl-5,5-diphenyt barbiturate], the AUC(0-t) in data set [6] (Oral, 30 mg/kg, analyte DPB) came out at 135.10 µg·h/mL; in data set [6] (dog, in vivo, iv, 15 mg/kg, IV infusion, 15 mg/kg, analyte DPB, read-out: AUC0-t) it was 59.4 µg·h/mL; in data set [6] (dog, in vivo, po, 30 mg/kg, Oral, 30 mg/kg, analyte DPB, read-out: AUC0-t) it was 135 µg·h/mL; in data set [6] (dog, in vivo, po, 30 mg/kg, Oral, 30 mg/kg, analyte MMMDPB, read-out: AUC0-t), 29.4 µg·h/mL. Moreover, the Cmax was 8600 ng/mL in data set [6] (setting [7]) and 11600 ng/mL in data set [6] (dog, in vivo, po, 30 mg/kg, analyte DPB, plasma, n=8). Moreover, the time of peak concentration (Tmax) in data set [6] (setting [7]) stood at 3.13 h; in data set [6] (dog, in vivo, po, 30 mg/kg, analyte DPB), 7.28 h. Further, in data set [6] (dog, in vivo, Oral, 30 mg/kg, analyte DPB, read-out: F (absolute bioavailability)), the bioavailability is 315%.
`COCN1C(=O)NC(=O)C(c2ccccc2)(c2ccccc2)C1=O` [MMMDPB, monomethoxymethyl-5,5-diphenyl barbituric acid]: the AUC(0-t) in data set [6] (Oral, 30 mg/kg, analyte DPB) is 193.18 µg·h/mL; in data set [6] (dog, in vivo, Oral, 30 mg/kg, analyte DPB, read-out: AUC0-t), 193 µg·h/mL. Moreover, the time to peak (Tmax) in data set [6] (dog, in vivo, Oral, 30 mg/kg, analyte DPB) is 9.39 h. This molecule had a Cmax in data set [6] (dog, in vivo, Oral, 30 mg/kg, analyte DPB, plasma, n=8) of 13900 ng/mL.

The values above are taken from patent publication EP1781294B1, “COMPOSITION FOR IMPROVED BIOAVAILABILITY AND ENHANCED BRAIN DELIVERY OF 5,5-DIPHENYL BARBITURIC ACID” (priority 2004, dated 2006).
